# The source made the active and inactive calls. How the calls were made is not given here.
# Tested on: CCRIS mutagenicity, Ames/micronucleus/aberration tests
# Assay: CCRIS mutagenicity studies
# [1] = Test System: AMES SALMONELLA TYPHIMURIUM, Strain/Indicator: TA98, Metabolic Activation: NONE, Method: PREINCUBATION
# [2] = Test System: AMES SALMONELLA TYPHIMURIUM, Strain/Indicator: TA100, Metabolic Activation: NONE, Method: PREINCUBATION
compound,measurement,setting,value
Cc1c2ccccc2cc2c1ccc1ccccc12,mutagenic call,"Test System: AMES SALMONELLA TYPHIMURIUM, Strain/Indicator: TA98, Method: STANDARD PLATE",active; positive
same,mutagenic call,"Test System: AMES SALMONELLA TYPHIMURIUM, Strain/Indicator: TA100, Metabolic Activation: RAT, INTACT HEPATOCYTES, AROCLOR 1254, Method: PREINCUBATION",active; positive
same,mutagenic call,"Test System: AMES SALMONELLA TYPHIMURIUM, Strain/Indicator: TA100, Metabolic Activation: RAT, LIVER, S-9, AROCLOR 1254, Method: STANDARD PLATE",active; positive
same,mutagenic call,"Test System: AMES SALMONELLA TYPHIMURIUM, Strain/Indicator: TA100, Metabolic Activation: RAT, LIVER, S-9, PHENOBARBITAL, Method: STANDARD PLATE",active; positive
same,mutagenic call,"Test System: AMES SALMONELLA TYPHIMURIUM, Strain/Indicator: TA100, Metabolic Activation: RAT, NADPH-FORTIFIED HOMOGENIZED HEPATOCYTES, AROCLOR 1254, Method: PREINCUBATION",active; positive
same,mutagenic call,"Test System: AMES SALMONELLA TYPHIMURIUM, Strain/Indicator: TA100, Metabolic Activation: RAT, SONICATED HEPATOCYTES, AROCLOR 1254, Method: PREINCUBATION",active; positive
same,mutagenic call,"Test System: AMES SALMONELLA TYPHIMURIUM, Strain/Indicator: TA100, Method: STANDARD PLATE",active; positive
same,mutagenic call,"Test System: CHINESE HAMSTER V-79, Strain/Indicator: V-79/8-AZAGUANINE, Metabolic Activation: CELL-MEDIATED, Method: STANDARD PLATE",active; positive
same,mutagenic call,"Test System: CHINESE HAMSTER V-79, Strain/Indicator: V-79/8-AZAGUANINE, Metabolic Activation: NONE, Method: STANDARD PLATE",active; positive
same,mutagenic call,"Test System: CHINESE HAMSTER V-79, Strain/Indicator: V-79/OUABAIN, Metabolic Activation: CELL-MEDIATED, Method: STANDARD PLATE",active; positive
CC(=O)Nc1ccc2ncccc2c1,mutagenic call,[1],inactive; negative
same,mutagenic call,"Test System: AMES SALMONELLA TYPHIMURIUM, Strain/Indicator: TA98, Metabolic Activation: RAT, LIVER, S-9, KANECHLOR 500, Method: PREINCUBATION",inactive; negative
same,mutagenic call,[2],inactive; negative
same,mutagenic call,"Test System: AMES SALMONELLA TYPHIMURIUM, Strain/Indicator: TA100, Metabolic Activation: RAT, LIVER, S-9, KANECHLOR 500, Method: PREINCUBATION",active; positive
c1ccc(Nc2ccc3ccccc3c2)cc1,mutagenic call,"End Point: IN VITRO CHROMOSOMAL ABERRATIONS, Test System: CHINESE HAMSTER LUNG CELLS (CHL), Metabolic Activation: NONE",inactive; negative
same,mutagenic call,"End Point: IN VITRO CHROMOSOMAL ABERRATIONS, Test System: CHINESE HAMSTER LUNG CELLS (CHL), Metabolic Activation: RAT, LIVER, S-9, KC-400",active; positive (structural changes)
same,mutagenic call,"End Point: IN VITRO CHROMOSOMAL ABERRATIONS, Test System: CHINESE HAMSTER OVARY CELLS (CHO), Metabolic Activation: NONE",inactive; negative
same,mutagenic call,"End Point: IN VITRO CHROMOSOMAL ABERRATIONS, Test System: CHINESE HAMSTER OVARY CELLS (CHO), Metabolic Activation: RAT, LIVER, S-9, AROCLOR 1254",inactive; negative
same,mutagenic call,"End Point: IN VITRO CHROMOSOMAL ABERRATIONS, Test System: CHO CELLS, Metabolic Activation: NONE",inactive; negative
same,mutagenic call,"End Point: IN VITRO CHROMOSOMAL ABERRATIONS, Test System: CHO CELLS, Metabolic Activation: RAT, LIVER, S-9, AROCLOR 1254",inactive; negative
same,mutagenic call,"Test System: AMES SALMONELLA TYPHIMURIUM, Strain/Indicator: TA97, Metabolic Activation: HAMSTER, LIVER, S-9, AROCLOR 1254 (10%), Method: PREINCUBATION",inactive; negative
same,mutagenic call,"Test System: AMES SALMONELLA TYPHIMURIUM, Strain/Indicator: TA97, Metabolic Activation: HAMSTER, LIVER, S-9, AROCLOR 1254 (30%), Method: PREINCUBATION",inactive; negative
same,mutagenic call,"Test System: AMES SALMONELLA TYPHIMURIUM, Strain/Indicator: TA97, Metabolic Activation: HAMSTER, LIVER, S-9, AROCLOR 1254, Method: PREINCUBATION",inactive; negative
same,mutagenic call,"Test System: AMES SALMONELLA TYPHIMURIUM, Strain/Indicator: TA97, Metabolic Activation: NONE, Method: PREINCUBATION",inactive; negative
same,mutagenic call,"Test System: AMES SALMONELLA TYPHIMURIUM, Strain/Indicator: TA97, Metabolic Activation: RAT, LIVER, S-9, AROCLOR 1254 (10%), Method: PREINCUBATION",inactive; negative
same,mutagenic call,"Test System: AMES SALMONELLA TYPHIMURIUM, Strain/Indicator: TA97, Metabolic Activation: RAT, LIVER, S-9, AROCLOR 1254 (30%), Method: PREINCUBATION",inactive; negative
same,mutagenic call,"Test System: AMES SALMONELLA TYPHIMURIUM, Strain/Indicator: TA97, Metabolic Activation: RAT, LIVER, S-9, AROCLOR 1254, Method: PREINCUBATION",inactive; negative
same,mutagenic call,"Test System: AMES SALMONELLA TYPHIMURIUM, Strain/Indicator: TA98, Metabolic Activation: HAMSTER, LIVER, S-9, AROCLOR 1254 (10%), Method: PREINCUBATION",inactive; negative
same,mutagenic call,"Test System: AMES SALMONELLA TYPHIMURIUM, Strain/Indicator: TA98, Metabolic Activation: HAMSTER, LIVER, S-9, AROCLOR 1254 (30%), Method: PREINCUBATION",inactive; negative
same,mutagenic call,"Test System: AMES SALMONELLA TYPHIMURIUM, Strain/Indicator: TA98, Metabolic Activation: HAMSTER, LIVER, S-9, AROCLOR 1254, Method: PREINCUBATION",inactive; negative
same,mutagenic call,[1],inactive; negative
same,mutagenic call,"Test System: AMES SALMONELLA TYPHIMURIUM, Strain/Indicator: TA98, Metabolic Activation: RAT, LIVER, S-9, AROCLOR 1254 (10%), Method: PREINCUBATION",inactive; negative
same,mutagenic call,"Test System: AMES SALMONELLA TYPHIMURIUM, Strain/Indicator: TA98, Metabolic Activation: RAT, LIVER, S-9, AROCLOR 1254 (30%), Method: PREINCUBATION",inactive; negative
same,mutagenic call,"Test System: AMES SALMONELLA TYPHIMURIUM, Strain/Indicator: TA98, Metabolic Activation: RAT, LIVER, S-9, AROCLOR 1254, Method: PREINCUBATION",inactive; negative
same,mutagenic call,"Test System: AMES SALMONELLA TYPHIMURIUM, Strain/Indicator: TA100, Metabolic Activation: HAMSTER, LIVER, S-9, AROCLOR 1254 (10%), Method: PREINCUBATION",inactive; negative
same,mutagenic call,"Test System: AMES SALMONELLA TYPHIMURIUM, Strain/Indicator: TA100, Metabolic Activation: HAMSTER, LIVER, S-9, AROCLOR 1254 (30%), Method: PREINCUBATION",inactive; negative
same,mutagenic call,"Test System: AMES SALMONELLA TYPHIMURIUM, Strain/Indicator: TA100, Metabolic Activation: HAMSTER, LIVER, S-9, AROCLOR 1254, Method: PREINCUBATION",inactive; negative
same,mutagenic call,[2],inactive; negative
same,mutagenic call,"Test System: AMES SALMONELLA TYPHIMURIUM, Strain/Indicator: TA100, Metabolic Activation: RAT, LIVER, S-9, AROCLOR 1254 (10%), Method: PREINCUBATION",inactive; negative
same,mutagenic call,"Test System: AMES SALMONELLA TYPHIMURIUM, Strain/Indicator: TA100, Metabolic Activation: RAT, LIVER, S-9, AROCLOR 1254 (30%), Method: PREINCUBATION",inactive; negative
same,mutagenic call,"Test System: AMES SALMONELLA TYPHIMURIUM, Strain/Indicator: TA100, Metabolic Activation: RAT, LIVER, S-9, AROCLOR 1254, Method: PREINCUBATION",inactive; negative
same,mutagenic call,"Test System: AMES SALMONELLA TYPHIMURIUM, Strain/Indicator: TA1535, Metabolic Activation: HAMSTER, LIVER, S-9, AROCLOR 1254 (10%), Method: PREINCUBATION",inactive; negative
same,mutagenic call,"Test System: AMES SALMONELLA TYPHIMURIUM, Strain/Indicator: TA1535, Metabolic Activation: HAMSTER, LIVER, S-9, AROCLOR 1254 (30%), Method: PREINCUBATION",inactive; negative
same,mutagenic call,"Test System: AMES SALMONELLA TYPHIMURIUM, Strain/Indicator: TA1535, Metabolic Activation: HAMSTER, LIVER, S-9, AROCLOR 1254, Method: PREINCUBATION",inactive; negative
same,mutagenic call,"Test System: AMES SALMONELLA TYPHIMURIUM, Strain/Indicator: TA1535, Metabolic Activation: NONE, Method: PREINCUBATION",inactive; negative
same,mutagenic call,"Test System: AMES SALMONELLA TYPHIMURIUM, Strain/Indicator: TA1535, Metabolic Activation: RAT, LIVER, S-9, AROCLOR 1254 (10%), Method: PREINCUBATION",inactive; negative
same,mutagenic call,"Test System: AMES SALMONELLA TYPHIMURIUM, Strain/Indicator: TA1535, Metabolic Activation: RAT, LIVER, S-9, AROCLOR 1254 (30%), Method: PREINCUBATION",inactive; negative
same,mutagenic call,"Test System: AMES SALMONELLA TYPHIMURIUM, Strain/Indicator: TA1535, Metabolic Activation: RAT, LIVER, S-9, AROCLOR 1254, Method: PREINCUBATION",inactive; negative
same,mutagenic call,"Test System: MOUSE LYMPHOMA, Strain/Indicator: L5178Y (TK+/TK-), Metabolic Activation: NONE, Method: SUSPENSION/PLATE",inactive; negative
same,mutagenic call,"Test System: MOUSE LYMPHOMA, Strain/Indicator: L5178Y (TK+/TK-), Metabolic Activation: RAT, LIVER, S-9, AROCLOR 1254, Method: SUSPENSION/PLATE",active; positive

# Reference: PubChem BioAssay AID1259407 (Chemical Carcinogenesis Research Information System (CCRIS), 2018)
